{"source": "patent US11779019B2", "about": "“Composition made from polyol(s) and sterol(s) for use in the agricultural field” (ELICIT PLANT, priority 2017, dated 2023)", "tested_on": "parsley (Petroselinum crispum)", "assay": "Resistance of parsley to flooding (abiotic) stress after watering with sample solutions", "format": "in vivo", "details": "potted parsley, watering every three days with 40 ml of 97% water+3% of the sample, observed after 18 days, vs water control", "protocol": "The effectiveness of each combination on the plants tolerance to abiotic stress is analyzed.\nBefore the treatment all the leaves of the parsley plants are cut off.\nThis abundant watering is intended to mimic a flooding stress.\nEach batch consists of four pots.\nAfter 18 days the plants are observed, and pictures are taken.", "data": [{"smiles": "CC[C@H](CC[C@@H](C)[C@H]1CC[C@H]2[C@@H]3CC=C4C[C@@H](O)CC[C@]4(C)[C@H]3CC[C@]12C)C(C)C", "note": "[A, beta-sitosterol]", "values": [{"measurement": "effect on the plants' tolerance to stress (flooding stress)", "value": "All the samples, except the beta sitosterol alone (sample A), show a positive effect"}]}]}
